According to US6066642A, “Dihydropyridine-, pyridine-, benzopyran-4-one- and triazoloquinazoline derivative, their preparation and their use as adenosine receptor antagonists” (priority 1998, dated 2000):
Where two headings read alike, the source gives them in different places.

Experiments:
[1] = target: T1, A1 receptors (Rattus norvegicus, UniProt P25099); experiment: biochemical; format: binding; settings: for inhibition at 100 µM: 10^-4 M; for Ki: rat brain membranes, read-out: Ki rA1; for greater affinity to A1 than A2a adenosine receptors: selectivity in words
T1 sequence (P25099 1-326): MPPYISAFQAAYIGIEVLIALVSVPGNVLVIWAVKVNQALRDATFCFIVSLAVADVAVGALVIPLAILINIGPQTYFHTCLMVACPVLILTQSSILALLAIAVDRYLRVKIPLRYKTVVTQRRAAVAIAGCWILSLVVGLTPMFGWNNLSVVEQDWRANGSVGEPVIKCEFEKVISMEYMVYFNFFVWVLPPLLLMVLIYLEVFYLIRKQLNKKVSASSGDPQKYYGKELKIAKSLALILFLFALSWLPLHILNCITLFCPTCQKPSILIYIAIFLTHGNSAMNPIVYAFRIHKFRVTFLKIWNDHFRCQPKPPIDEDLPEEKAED
Experimental: ^a Displacement of specific [^3 H] PIA binding in rat brain
percentage of specific binding displaced at 100 μM.

[2] = target: T2, A2a receptors (Rattus norvegicus, UniProt P30543); experiment: radioligand binding, displacement of specific [3H]CGS 21680 binding in rat striatal membranes; settings: for Ki: [3H]CGS 21680, rat striatal membranes; for inhibition at 100 µM: 10^-4 M
T2 construct: Displacement of specific [^3 H]; from tissue; host or cells: rat striatal membranes
Experimental: ^b Displacement of specific [^3 H]
or as a percentage of specific binding displaced at 100 μM.

[3] = Table 12, read-out: % inhibition rA1
[4] = Table 12, read-out: displacement of specific binding rA2A
[5] = Table 12, read-out: % inhibition rA2A
[6] = Table 12, read-out: displacement of specific binding rA1
[7] = Table 11, read-out: % inhibition rA1
[8] = Table 11, read-out: % inhibition rA2A
[9] = Table 11, read-out: displacement of specific binding rA2A
[10] = Table 11, read-out: displacement of specific binding rA1

T2 sequence (P30543 whole entry): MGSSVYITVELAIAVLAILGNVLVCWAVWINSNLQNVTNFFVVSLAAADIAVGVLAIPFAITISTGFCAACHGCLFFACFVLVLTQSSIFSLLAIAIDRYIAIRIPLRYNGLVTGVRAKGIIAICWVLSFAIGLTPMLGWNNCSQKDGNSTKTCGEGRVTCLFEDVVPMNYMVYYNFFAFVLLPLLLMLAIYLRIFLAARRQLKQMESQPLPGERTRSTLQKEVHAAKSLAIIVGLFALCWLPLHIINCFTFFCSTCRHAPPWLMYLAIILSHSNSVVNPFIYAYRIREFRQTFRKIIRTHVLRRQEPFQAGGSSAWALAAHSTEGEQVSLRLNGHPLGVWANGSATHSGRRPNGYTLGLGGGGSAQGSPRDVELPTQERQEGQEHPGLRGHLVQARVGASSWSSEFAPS

Compound: CCOC(=O)C1=C(C)NC(C)=C(C(=O)OC)C1c1ccc([N+](=O)[O-])cc1 (racemic) [Compound 67, 3-methyl-5-ethyl-2,6-dimethyl-4-(4-nitrophenyl)-1,4(R,S)-dihydropyridine-3,5-dicarboxylate]
- inhibition at 100 µM ([1]; Table 9, read-out: % of specific binding displaced rA1): 37 ± 14%
- Ki ([2]; Table 9, read-out: Ki rA2A): 35.6 µM

Compound: CCOC(=O)C1=C(C)NC(c2ccccc2)=C(C(=O)OCC)C1C#Cc1cccc(C)c1 (racemic) [Compound 120, 3,5-Diethyl 2-methyl-4-(3-methylphenylethynyl)-6-phenyl-1,4-(±)-dihydropyridine-3,5-dicarboxylate]
- inhibition at 100 µM [1, 3]: 41%
- inhibition at 100 µM [2, 4]: < 10%

Compound: CCOC(=O)C1=C(C)NC(c2ccccc2)=C(C(=O)OCc2ccccc2C)C1C#Cc1ccccc1 (racemic) [Compound 122a]
- inhibition at 100 µM [1, 3]: 16 ± 1%
- inhibition at 100 µM [2, 5]: 13%

Compound: CCOC(=O)C1=C(C)NC(c2ccccc2)=C(C(=O)OCc2cccc(C)c2)C1C#Cc1ccccc1 (racemic) [Compound 122b, 3-Ethyl 5-(3-methylbenzyl)-4-phenylethynyl-6-phenyl-1,4(±)-dihydropyridine-3.5-dicarboxylate]
- inhibition at 100 µM [1, 6]: < 10%
- inhibition at 100 µM [2, 5]: 16 ± 2%

Compound: CCOC(=O)C1=C(C)NC(c2ccccc2)=C(C(=O)OCc2ccc(C)cc2)C1C#Cc1ccccc1 (racemic) [Compound 122c]
- inhibition at 100 µM [1, 6]: < 10%
- inhibition at 100 µM [2, 5]: 17 ± 3%

Compound: CCOC(=O)C1=C(C)NC(c2ccccc2)=C(C(=O)OCc2ccc(C(F)(F)F)cc2)C1C#Cc1ccccc1 (racemic) [Compound 122d]
- inhibition at 100 µM [1, 3]: 32 ± 3%
- inhibition at 100 µM [2, 5]: 15%

Compound: CCOC(=O)C1=C(C)NC(c2ccccc2)=C(C(=O)OCc2cccc([N+](=O)[O-])c2)C1C#Cc1ccccc1 (racemic) [Compound 122f, 3-Ethyl 5-(3-nitrobenzyl)-4-phenylethynyl-6-phenyl-1,4(±)-dihydropyridine-3,5-dicarboxylate]
- inhibition at 100 µM [1, 3]: 28 ± 2%
- inhibition at 100 µM [2, 4]: < 10%

Compound: CCOC(=O)C1=C(C)NC(c2ccccc2)=C(C(=O)OCc2ccc([N+](=O)[O-])cc2)C1C#Cc1ccccc1 (racemic) [Compound 122g]
- inhibition at 100 µM [1, 3]: 29 ± 2%

Compound: CCCOC(=O)C1=C(C)NC(c2ccccc2)=C(C(=O)OCc2ccccc2)C1C#Cc1ccccc1 (racemic) [Compound 124, 3-Propyl 5-benzyl 2-methyl-4-phenylethynyl-6-phenyl-1,4-(±)-dihydropyridine-3,5-dicarboxylate]
- inhibition at 100 µM [1, 3]: 27 ± 7%
- inhibition at 100 µM [2, 5]: 16%

Compound: CCOC(=O)C1=C(C)NC(c2ccccc2)=C(C(=O)OCCc2ccccc2)C1C#Cc1ccccc1 (racemic) [Compound 125, 3-Ethyl 5-phenylethyl 2-methyl-4-phenylethynyl-6-phenyl-1,4-(±)-dihydropyridine-3.5-dicarboxylate]
- inhibition at 100 µM [1, 6]: < 10%
- inhibition at 100 µM [2, 4]: < 10%

Compound: CCOC(=O)C1=C(C)NC(c2ccccc2)=C(C(=O)OCCCc2ccccc2)C1C#Cc1ccccc1 (racemic) [Compound 126, 3-Ethyl 5-phenylpropyl 2-methyl-4-phenylethynyl-6-phenyl-1,4-(±)-dihydropyridine-3,5-dicarboxylate]
- inhibition at 100 µM [1, 6]: < 10%
- inhibition at 100 µM [2, 4]: < 10%

Compound: CCOC(=O)C1=C(C)NC(c2ccccc2)=C(C(=O)OC(C)(C)C)C1C#Cc1ccccc1 (racemic) [Compound 127, 3-Ethyl 5-t-butyl 2-methyl-4-phenylethynyl-6-phenyl-1,4-(±)-dihydropyridine-3.5-dicarboxylate]
- Ki ([1]; Table 12, [3H]R-PIA): 25.3 µM
- inhibition at 100 µM [2, 5]: 27 ± 5%

Compound: CCOC(=O)C1=C(C)N(COC)C(c2ccccc2)=C(C(=O)OCC[Si](C)(C)C)C1C#Cc1ccccc1 (racemic) [Compound 137, 1-Methoxymethyl 3-ethyl 5-(2-trimethylsilyl)-ethyl 2-methyl-4-phenylethynyl-6-phenyl-1,4-(±)-dihydropyridine-3,5-dicarboxylate]
- inhibition at 100 µM [1, 6]: < 10%
- inhibition at 100 µM [2, 5]: 27 ± 4%

Compound: CCOCN1C(C)=C(C(=O)OCC)C(C#Cc2ccccc2)C(C(=O)OCC[Si](C)(C)C)=C1c1ccccc1 (racemic) [Compound 138, 1-Ethoxymethyl 3-ethyl 5-(2-trimethylsilyl)-ethyl 2-methyl-4-phenylethynyl-6-phenyl-1,4-(±)-dihydropyridine-3,5-dicarboxylate]
- inhibition at 100 µM [1, 3]: 13 ± 3%
- inhibition at 100 µM [2, 5]: 19%

Compound: COc1cc(OC)c2c(=O)c(OC)c(-c3ccccc3)oc2c1 [Compound 2, 3,5,7-Trimethoxyflavone]
- Ki ([1]; Table 3, [3H]PIA): 0.509 ± 0.049 µM
- Ki ([2]; Table 3, read-out: Ki rA2a): 6.45 ± 1.48 µM

Compound: O=c1c(O)c(-c2ccc(O)cc2O)oc2cc(O)cc(O)c12 [Compound 5a, 2',3,4',5,7-pentahydroxyflavone, reference compound]
- Ki ([1]; Table 3, [3H]PIA): 13.8 µM
- Ki ([2]; Table 3, read-out: Ki rA2a): 17.3 µM

Compound: O=c1cc(-c2ccccc2)oc2ccccc12 [Compound 11a, flavone, reference compound]
- Ki ([1]; Table 3, [3H]PIA): 3.28 ± 0.92 µM
- Ki ([2]; Table 3, read-out: Ki rA2a): 3.45 ± 1.16 µM

Compound: O=C1CC(c2ccccc2)Oc2ccccc21 (stereo not drawn) [Compound 12, flavanone, reference compound]
- Ki ([1]; Table 4, [3H]PIA): 32 ± 4.8 µM

Compound: O=C1CC(c2ccccc2O)Oc2ccccc21 (stereo not drawn) [Compound 13, reference compound]
- Ki ([1]; Table 4, [3H]PIA): 2.64 ± 0.56 µM
- Ki ([2]; Table 4, read-out: Ki rA2a): 17.6 ± 2.1 µM

Compound: COc1c2ccoc2cc2oc(C)cc(=O)c12 [Compound 17, 4-methoxy-7-methyl-5H-furo[3,2-g][1]-benzopyrano-5-one, reference compound]
- inhibition at 100 µM ([1]; Table 5, read-out: % of specific binding displaced rA1): 36 ± 3%
- Ki ([2]; Table 5, read-out: Ki rA2a): 42.4 ± 11.9 µM

Compound: COC(=O)C1=C(C)NC(C)=C(C(=O)OCCN(C)Cc2ccccc2)C1c1cccc([N+](=O)[O-])c1 (stereo not drawn) [Compound 63, reference compound]
- Ki ([1]; Table 9, [3H]PIA): 19.6 µM
- greater affinity to A1 than A2a adenosine receptors [1]: greater affinity to A1 adenosine receptors than A2a receptors
- Ki ([2]; Table 9, read-out: Ki rA2A): 63.8 µM

Compound: COC(=O)C1=C(C)NC(C)=C([N+](=O)[O-])C1c1ccccc1C(F)(F)F (stereo not drawn) [Compound 69, reference compound]
- greater affinity to A1 than A2a adenosine receptors [1]: greater affinity to A1 adenosine receptors than A2a receptors

Compound: COC(=O)C1=C(C)NC(C)=C([N+](=O)[O-])C1c1ccccc1C(F)(F)F (stereo not drawn) [Compound 70, reference compound]
- greater affinity to A1 than A2a adenosine receptors [1]: greater affinity to A1 adenosine receptors than A2a receptors

Compound: CCOC(=O)C1=C(C)NC(c2ccccc2)=C(C(=O)OCc2ccccc2)C1/C=C/c1ccccc1 (stereo not drawn) [Compound 99]
- inhibition at 100 µM [1, 7]: 35 ± 3%
- inhibition at 100 µM [2, 8]: 15%

Compound: CCOC(=O)C1=C(C)NC(c2ccccc2)=C(C(=O)OCc2ccccc2)C1/C=C/c1ccc([N+](=O)[O-])cc1 (stereo not drawn) [Compound 100]
- inhibition at 100 µM [1, 7]: 33%
- inhibition at 100 µM [2, 9]: < 10%

Compound: CCOC(=O)C1=C(c2ccccc2)NC(C)=C(C(=O)OCc2ccccc2)C1/C=C/c1ccccc1 (stereo not drawn) [Compound 105]
- inhibition at 100 µM [1, 10]: < 10%
- inhibition at 100 µM [2, 8]: 16 ± 11%

Compound: CCOC(=O)C1=C(c2ccccc2)NC(C)=C(C(=O)OCc2ccccc2)C1/C=C/c1ccc([N+](=O)[O-])cc1 (stereo not drawn) [Compound 106]
- inhibition at 100 µM [1, 10]: < 10%
- inhibition at 100 µM [2, 9]: < 10%

Compound: CCOC(=O)C1=C(c2ccccc2)NC(C)=C(C(=O)OCc2ccccc2)C1C#Cc1ccccc1 (stereo not drawn) [Compound 107]
- inhibition at 100 µM [1, 7]: 24 ± 4%
- inhibition at 100 µM [2, 9]: < 10%

Compound: C=CCOC(=O)C1=C(C)NC(c2ccccc2)=C(C(=O)OCC)C1/C=C/c1ccc([N+](=O)[O-])cc1 (stereo not drawn) [Compound 117]
- inhibition at 100 µM [1, 6]: < 10%
- inhibition at 100 µM [2, 5]: 15%

Compound: CCOC(=O)C1=C(C)NC(c2ccccc2)=C(C(=O)OCC)C1/C=C/c1ccc([N+](=O)[O-])cc1 (stereo not drawn) [Compound 118]
- inhibition at 100 µM [1, 3]: 31%
- inhibition at 100 µM [2, 5]: 26%

Compound: CCOC(=O)C1=C(C)NC(c2ccccc2)=C(C(=O)OCc2ccccc2)C1C#Cc1ccccc1 (stereo not drawn) [Compound 121]
- inhibition at 100 µM [1, 3]: 25 ± 4%

Compound: CCOC(=O)C1=C(C)NC(c2ccccc2)=C(C(=O)OCc2cccc(I)c2)C1C#Cc1ccccc1 (stereo not drawn) [Compound 122e]
- inhibition at 100 µM [1, 3]: 14%
- inhibition at 100 µM [2, 5]: 19 ± 7%

Compound: CCNC(=O)C1=C(c2ccccc2)N(COCC)C(C)=C(C(=O)OCC)C1C#Cc1ccccc1 (stereo not drawn) [Compound 140]
- inhibition at 100 µM [2, 5]: 35%

Compound: CC(C)(C)OC(=O)Nc1nc2ccc(Cl)cc2c2nc(-c3ccco3)nn12 [Compound 150, 5-[(tert.-Butoxycarbonyl)amino]-9-chloro-2-(2-furyl)[1,2,4]triazolo[1,5-c]quinazoline]
- Ki ([1]; Table 15, [3H]PIA): 0.19 ± 0.016 µM
- Ki ([2]; Table 15, read-out: Ki rA2A): 0.092 ± 0.008 µM

Compound: CCCn1c(=O)n2nc(-c3ccco3)nc2c2cc(Cl)ccc21 [Compound 159, 9-Chloro-2-(2-furyl)[1,2,4]triazolo[1,5-c]quinazolin-6-propyl-5-one]
- Ki ([1]; Table 15, [3H]PIA): 2 µM

Compound: CCOC(=O)C1=C(c2ccccc2)NC(C)=C(C(=O)OCC(O)CO)C1C#Cc1ccccc1 (stereo not drawn) [Compound 212a]
- inhibition at 100 µM ([2]; Table 14, read-out: displacement of specific binding rA2A): < 10%

Compound: CCOC(=O)C1=C(c2ccccc2)NC(C)=C(C(=O)OCC(O)CO)C1C#Cc1ccccc1 (stereo not drawn) [Compound 213a]
- inhibition at 100 µM ([2]; Table 14, read-out: % inhibition rA2A): 39 ± 8%
